Measurements: ChEMBL document CHEMBL1201862, “PubChem BioAssay data set” (2004)
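How tested: cells in 96-well plates exposed to compound for 48 hours at five concentrations. GI50 is the concentration that inhibits growth by half.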 Active and inactive are the calls of the source. Cut-off read from the data, not from the text of the source: active = GI50 up to about 1.1 µM and inactive = higher.

How the values were obtained:
Experiment in all cases: NCI-60 cell line screen, 48 h
Hs-578T = test system: Hs-578T
A549 = test system: A549
HCT-116 = test system: HCT-116
T47D = test system: T47D
SNB-75 = test system: SNB-75
OVCAR-8 = test system: OVCAR-8
SK-MEL-5 = test system: SK-MEL-5
IGROV-1 = test system: IGROV-1
PC-3 = test system: PC-3
MDA-MB-231 = test system: MDA-MB-231
RXF 393 = test system: RXF 393
UO-31 = test system: UO-31
KM12 = test system: KM12
MDA-MB-435 = test system: MDA-MB-435
SF-268 = test system: SF-268
SF-295 = test system: SF-295
SF-539 = test system: SF-539
A498 = test system: A498
UACC-62 = test system: UACC-62
HOP-62 = test system: HOP-62

SMILES	GI50 (Hs-578T)	GI50 (A549)	GI50 (HCT-116)	GI50 (T47D)	GI50 (SNB-75)	GI50 (OVCAR-8)	GI50 (SK-MEL-5)	GI50 (IGROV-1)	GI50 (PC-3)	GI50 (MDA-MB-231)	GI50 (RXF 393)	GI50 (UO-31)	GI50 (KM12)	GI50 (MDA-MB-435)	GI50 (SF-268)	GI50 (SF-295)	GI50 (SF-539)	GI50 (A498)	GI50 (UACC-62)	GI50 (HOP-62)
O=C(O)C(CCc1ccccn1)c1ccccc1 (stereo not given)	> 100 µM (inactive)	> 100 µM (inactive)	> 100 µM (inactive)	> 100 µM (inactive)	> 100 µM (inactive)	> 100 µM (inactive)	> 100 µM (inactive)	> 100 µM (inactive)	> 100 µM (inactive)	> 100 µM (inactive)	> 100 µM (inactive)	> 100 µM (inactive)	> 100 µM (inactive)	> 100 µM (inactive)	> 100 µM (inactive)	> 100 µM (inactive)	> 100 µM (inactive)	> 100 µM (inactive)	> 100 µM (inactive)	> 100 µM (inactive)
CCOC(=O)C(NC(=O)c1ccccc1)(Nc1ccc(S(=O)(=O)Nc2cc(C)nc(C)n2)cc1)C(F)(F)F (stereo not given)	> 100 µM (inactive)	> 100 µM (inactive)	> 100 µM (inactive)	> 100 µM (inactive)	> 100 µM (inactive)	> 100 µM (inactive)	> 100 µM (inactive)	> 100 µM (inactive)	> 100 µM (inactive)	> 100 µM (inactive)	> 100 µM (inactive)	> 100 µM (inactive)	> 100 µM (inactive)	> 100 µM (inactive)	> 100 µM (inactive)	> 100 µM (inactive)	> 100 µM (inactive)	14.7 µM (inactive)	> 100 µM (inactive)	> 100 µM (inactive)
OC1CCCC1C(O)(C(F)(F)F)C(F)(F)F (stereo not given)	> 100 µM (inactive)	> 100 µM (inactive)	> 100 µM (inactive)	> 100 µM (inactive)	> 100 µM (inactive)	> 100 µM (inactive)	> 100 µM (inactive)	> 100 µM (inactive)	> 100 µM (inactive)	> 100 µM (inactive)	> 100 µM (inactive)	> 100 µM (inactive)	> 100 µM (inactive)	> 100 µM (inactive)	> 100 µM (inactive)	> 100 µM (inactive)	> 100 µM (inactive)	> 100 µM (inactive)	> 100 µM (inactive)	> 100 µM (inactive)
COC(=O)C1=C(C)N2[C@H](C(=O)O)CO[C@@]2(C)[C@H](C(=O)OC)[C@H]1c1cccc([N+](=O)[O-])c1	> 100 µM (inactive)	> 100 µM (inactive)	> 100 µM (inactive)	> 100 µM (inactive)	> 100 µM (inactive)	> 100 µM (inactive)	> 100 µM (inactive)	> 100 µM (inactive)	> 100 µM (inactive)	> 100 µM (inactive)	> 100 µM (inactive)	> 100 µM (inactive)	> 100 µM (inactive)	> 100 µM (inactive)	> 100 µM (inactive)	> 100 µM (inactive)	> 100 µM (inactive)	> 100 µM (inactive)	> 100 µM (inactive)	> 100 µM (inactive)
Cc1ccc([N+](=O)[O-])cc1S(=O)(=O)Nc1ccc(C2=NOC(c3ccco3)C2)cc1 (stereo not given)	29.8 µM (inactive)	21.9 µM (inactive)	16.4 µM (inactive)	22.8 µM (inactive)	18.7 µM (inactive)	39.2 µM (inactive)	13.2 µM (inactive)	24 µM (inactive)	15.7 µM (inactive)	17.1 µM (inactive)	8.73 µM (inactive)	16.9 µM (inactive)	11.8 µM (inactive)	3.03 µM (inactive)	26.1 µM (inactive)	14.1 µM (inactive)	23 µM (inactive)	15.1 µM (inactive)	11.7 µM (inactive)	12.6 µM (inactive)
OCCCCCNc1c2ccccc2nc2ccccc12	3.18 µM (inactive)	2.65 µM (inactive)	1.45 µM (inactive)	2.82 µM (inactive)	5.52 µM (inactive)	2.34 µM (inactive)	1.71 µM (inactive)	3.03 µM (inactive)	1.98 µM (inactive)	2.74 µM (inactive)	2.86 µM (inactive)	2.38 µM (inactive)	3.13 µM (inactive)	2.68 µM (inactive)	2.75 µM (inactive)	2.75 µM (inactive)	2.75 µM (inactive)	3.73 µM (inactive)	1.8 µM (inactive)	1.38 µM (inactive)
CCC1C2Cc3ccc(O)cc3C1(CC)CCN2C (stereo not given)	> 100 µM (inactive)	> 100 µM (inactive)	> 100 µM (inactive)	> 100 µM (inactive)	> 100 µM (inactive)	> 100 µM (inactive)	> 100 µM (inactive)	> 100 µM (inactive)	> 100 µM (inactive)	> 100 µM (inactive)	> 100 µM (inactive)	> 100 µM (inactive)	> 100 µM (inactive)	> 100 µM (inactive)	> 100 µM (inactive)	> 100 µM (inactive)	> 100 µM (inactive)	> 100 µM (inactive)	> 100 µM (inactive)	> 100 µM (inactive)
Nc1ccccc1CCCC(=O)O	> 100 µM (inactive)	> 100 µM (inactive)	> 100 µM (inactive)	> 100 µM (inactive)	> 100 µM (inactive)	> 100 µM (inactive)	> 100 µM (inactive)	> 100 µM (inactive)	> 100 µM (inactive)	> 100 µM (inactive)	> 100 µM (inactive)	> 100 µM (inactive)	> 100 µM (inactive)	> 100 µM (inactive)	> 100 µM (inactive)	> 100 µM (inactive)	> 100 µM (inactive)	> 100 µM (inactive)	> 100 µM (inactive)	> 100 µM (inactive)
CC(=O)Nc1c2sscc-2n(C)c1=O [THIOLUTIN]	2.6 µM (inactive)	1.55 µM (inactive)	0.695 µM (active)	1.58 µM (inactive)	1.67 µM (inactive)	0.638 µM (active)	1.33 µM (inactive)	1.86 µM (inactive)	1.58 µM (inactive)	1.73 µM (inactive)	1.71 µM (inactive)	2.1 µM (inactive)	1.32 µM (inactive)	1.01 µM (active)	1.56 µM (inactive)	1.35 µM (inactive)	1.86 µM (inactive)	1.86 µM (inactive)	0.443 µM (active)	1.67 µM (inactive)
